Biological target: T1, P2X7 receptor (Homo sapiens, UniProt Q99572)
T1 construct: host or cells: THP-1 cells differentiated with LPS and IFN-γ
T1 sequence (Q99572 1-595): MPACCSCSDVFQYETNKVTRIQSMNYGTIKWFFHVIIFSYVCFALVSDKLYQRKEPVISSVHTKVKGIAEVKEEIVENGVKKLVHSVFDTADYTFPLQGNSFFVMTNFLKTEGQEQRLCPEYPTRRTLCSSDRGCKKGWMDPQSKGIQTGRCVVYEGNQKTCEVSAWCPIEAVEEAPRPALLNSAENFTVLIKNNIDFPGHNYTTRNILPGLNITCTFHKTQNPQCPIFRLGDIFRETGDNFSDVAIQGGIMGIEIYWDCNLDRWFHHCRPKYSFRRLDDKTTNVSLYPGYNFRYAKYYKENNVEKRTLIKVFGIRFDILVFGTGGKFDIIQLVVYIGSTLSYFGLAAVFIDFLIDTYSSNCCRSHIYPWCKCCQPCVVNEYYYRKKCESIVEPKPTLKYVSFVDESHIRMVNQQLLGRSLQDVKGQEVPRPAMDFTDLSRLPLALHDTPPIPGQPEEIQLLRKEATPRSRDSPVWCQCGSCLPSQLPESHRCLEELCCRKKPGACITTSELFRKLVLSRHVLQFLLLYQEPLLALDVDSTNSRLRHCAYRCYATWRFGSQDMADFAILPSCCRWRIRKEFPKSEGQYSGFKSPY
Assay: IL-1β release assay in differentiated THP-1 cells stimulated with BzATP (Example 9)
Type: cell-based
Conditions: differentiated THP-1 cells, BzATP 250 uM; for inhibition at 0.3 µM: 0.3 μM compound, symbols + to ++++, read-out: IL-1β % Inhib. @ 0.3 μM
How it was run: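 THP-1 cells differentiated 16 h with LPS and IFN-γ (100 ng/mL each), re-primed 2 h with LPS, then compound-pretreated 30 min before 250 uM BzATP for 45 min. Supernatant IL-1β quantified by ELISA; background-adjusted percent inhibition fitted to four-parameter logistic for IC50.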

inhibition at 0.3 µM [%] | inhibition at 0.1 µM (0.1 μM compound, symbols * to ****, read-out: IL-1β % Inhib. (asterisk symbols: at 0.1 μM)) [%] | SMILES
0 to 25 |  | CC(C)(C)Cn1ccc2c(NC(=O)[C@@]34C[C@@H]5C[C@@H](C[C@@H]3C5)C4)cccc2c1=O [Compound 1271]
0 to 25 |  | CC(C)(C)Cn1ccc2c(NC(=O)c3cccc4c3OCCO4)cccc2c1=O [Compound 1272]
0 to 25 |  | CC(C)(C)Cn1ccc2c(NC(=O)c3ccc4c(c3)OCCCO4)cccc2c1=O [Compound 1273]
0 to 25 |  | CC(C)(C)Cn1ccc2c(NC(=O)Cc3csc4ccccc34)cccc2c1=O [Compound 1274]
0 to 25 |  | Cc1c(Cl)cccc1C(=O)Nc1cccc2c(=O)n(CC(C)(C)C)ccc12 [Compound 1275]
0 to 25 |  | Cc1cc(C)cc(CC(=O)Nc2cccc3c(=O)n(CC(C)(C)C)ccc23)c1 [Compound 1276]
≥ 76 |  | CC(C)(C)Cn1ccc2c(NC(=O)C3C[C@@H]4CC[C@H]3C4)cccc2c1=O (some centres unmarked) [Compound 1277]
0 to 25 |  | COc1ccc(CC(=O)Nc2cccc3c(=O)n(CC(C)(C)C)ccc23)c(OC)c1 [Compound 1278]
0 to 25 |  | Cc1cc(C(=O)Nc2cccc3c(=O)n(CC(C)(C)C)ccc23)ccc1F [Compound 1279]
0 to 25 |  | CCOc1ccccc1CC(=O)Nc1cccc2c(=O)n(CC(C)(C)C)ccc12 [Compound 1280]
26 to 50 |  | COc1ccc(CC(=O)Nc2cccc3c(=O)n(CC(C)(C)C)ccc23)cc1C [Compound 1281]
0 to 25 |  | Cc1ccc(Cl)c(C(=O)Nc2cccc3c(=O)n(CC(C)(C)C)ccc23)c1 [Compound 1282]
26 to 50 |  | Cc1ccc(Cl)cc1C(=O)Nc1cccc2c(=O)n(CC(C)(C)C)ccc12 [Compound 1283]
0 to 25 |  | Cc1cccc(CCC(=O)Nc2cccc3c(=O)n(CC(C)(C)C)ccc23)c1 [Compound 1284]
0 to 25 |  | Cc1ccc(CCC(=O)Nc2cccc3c(=O)n(CC(C)(C)C)ccc23)c(C)c1 [Compound 1286]
0 to 25 |  | CC(C)(C)Cn1ccc2c(NC(=O)CCc3cccc(Cl)c3)cccc2c1=O [Compound 1287]
0 to 25 |  | CC(C)Cc1ccc(C(=O)Nc2cccc3c(=O)n(CC(C)(C)C)ccc23)cc1 [Compound 1288]
0 to 25 |  | Cc1cccc(C(=O)Nc2cccc3c(=O)n(C)ccc23)c1C [Compound 1289]

inhibition at 0.3 µM [%] | inhibition at 0.1 µM (0.1 μM compound, symbols * to ****, read-out: IL-1β % Inhib. (asterisk symbols: at 0.1 μM)) [%] | SMILES
 | 0 to 25 | COc1cc(OC)cc(C(=O)Nc2cccc3c(=O)n(C)ccc23)c1 [Compound 1290]
0 to 25 |  | CCOc1ccc(C(=O)Nc2cccc3c(=O)n(C)ccc23)cc1 [Compound 1291]
0 to 25 |  | CC(C(=O)Nc1cccc2c(=O)n(C)ccc12)c1ccccc1 (centres unmarked) [Compound 1292]
0 to 25 |  | COc1ccc(CCC(=O)Nc2cccc3c(=O)n(C)ccc23)cc1 [Compound 1293]
0 to 25 |  | Cn1ccc2c(NC(=O)Cc3ccccc3F)cccc2c1=O [Compound 1294]
0 to 25 |  | COc1ccccc1CC(=O)Nc1cccc2c(=O)n(C)ccc12 [Compound 1295]
0 to 25 |  | Cc1ccccc1CC(=O)Nc1cccc2c(=O)n(C)ccc12 [Compound 1296]
26 to 50 |  | COc1cccc(CC(=O)Nc2cccc3c(=O)n(C)ccc23)c1 [Compound 1297]
0 to 25 |  | Cc1cccc(CC(=O)Nc2cccc3c(=O)n(C)ccc23)c1 [Compound 1298]
0 to 25 |  | COc1ccc(CC(=O)Nc2cccc3c(=O)n(C)ccc23)cc1 [Compound 1299]
0 to 25 |  | Cn1ccc2c(NC(=O)c3cc4ccccc4o3)cccc2c1=O [Compound 1300]
0 to 25 |  | Cn1ccc2c(NC(=O)Cc3ccc4c(c3)OCO4)cccc2c1=O [Compound 1301]
0 to 25 |  | Cn1ccc2c(NC(=O)CC3CC4CC[C@H]3C4)cccc2c1=O (some centres unmarked) [Compound 1302]
0 to 25 |  | Cn1ccc2c(NC(=O)[C@@]34C[C@@H]5C[C@@H](C[C@@H]3C5)C4)cccc2c1=O [Compound 1303]
0 to 25 |  | Cn1ccc2c(NC(=O)c3cccc4c3OCCO4)cccc2c1=O [Compound 1304]
0 to 25 |  | Cn1ccc2c(NC(=O)c3ccc4c(c3)OCCCO4)cccc2c1=O [Compound 1305]
0 to 25 |  | Cn1ccc2c(NC(=O)C3C[C@@H]4CC[C@H]3C4)cccc2c1=O (some centres unmarked) [Compound 1306]
